Assay results taken from EP2659887A1, “Use of A-ring aromatic acetyl minocycline and pharmaceutical preparations derived from same for treatment and prevention of inflammation, autoimmune disorders and rejection of transplants” (priority 2012, dated 2013).

Legend:
humane T-Lymphozyten [1] = test: Viability of stimulated human T lymphocytes (CellTiter-Blue Cell Viability Assay); conditions: up to 5,0 µM; PWM (Figur 2A) or anti-CD3 (Figur 2B) stimulation
Experimental: Humane T-Lymphozyten wurden in serumfreiem Kulturmedium mit anti-CD3-Antikörpern (Klon OKT3) bzw. mit Pokeweed-Mitogen (PWM, 2 µg/ml) in An- und Abwesenheit verschiedener Konzentrationen von Minocyclin oder Pentaacetylcyclin stimuliert. Die Ermittlung der Proliferation (DNS-Synthese) der Zellen erfolgte nach 72 Stunden über den Einbau von 3H-Thymidin. Zur Überprüfung der Vitalität der Zellkulturen wurde der CeIITiter-Blue® Cell Viability-Assay (Promega) verwendet.

humane T-Lymphozyten [2] = test: Proliferation (DNA synthesis, 3H-thymidine incorporation) of stimulated human T lymphocytes; assay type: cell-based; conditions: remaining proliferation; PWM or anti-CD3 stimulation, 2,5 bis 5,0 µM
From the text: In in vitro-Untersuchungen dienten humane T-Lymphozyten des peripheren Blutes gesunder Spender zur Testung der immunmodulatorischen/immunsuppressiven Wirkung der Testsubstanzen. Eine gesteigerte Zellteilung/Proliferation dieser Immunzellen nach Stimulation simuliert in vitro eine Entzündungsreaktion. Eine Verringerung dieser stimulierten Proliferation durch applizierte Substanzen veranschaulicht deren immunmodulatorischen/immunsuppressiven Eigenschaften.

humane T-Lymphozyten [3] = test: Cytokine production of PWM-stimulated human T lymphocytes (ELISA of culture supernatants); assay type: cell-based; conditions: PWM 2 µg/ml, 48 h
From the text: Zytokine stellen Indikatoren für die Stärke einer Entzündungsreaktion dar und sind aktive Regulatoren der Differenzierung und Proliferation von T-Lymphozyten. Aus diesem Grund lassen sich aus den in einem in vitro-Testsystem gewonnenen Daten zur Produktion/Freisetzung von Zytokinen detailliertere Aussagen über die immunmodulierenden/immunsuppressiven Eigenschaften von Testsubstanzen herleiten.
Anschließend erfolgte die Messung der Konzentrationen von Interferon-y (IFN-y), Interleukin-2 (IL-2) und Interleukin-17 (IL-17) in den Zellkulturüberständen mittels spezifischer ELISA (R&D Systems).

[4] = system: Splenozyten (Milzzellen) von SJL/J-Mäusen; test: Proliferation (DNA synthesis, 3H-thymidine incorporation) of stimulated mouse splenocytes; assay type: cell-based, Maus; conditions: 2,5 bzw. 5,0 µM
Experimental: (§1) In weiteren in vitro-Untersuchungen dienten Splenozyten (Milzzellen) von SJL/J-Mäusen zur Testung der immunmodulatorischen/immunsuppressiven Wirkung der Testsubstanzen. Nach Stimulation der Splenozyten mit Pokeweed-Mitogen (PWM, 1 μg/ml) oder mit […] (Klon 145-2C11, BD Biosciences) erfolgte die Inkubation dieser Immunzellen in An- oder Abwesenheit verschiedener Konzentrationen von Minocyclin und Pentaacetylcyclin. Die anschließende Proliferation (DNS-Synthese) der Zellen wurde nach 72 Stunden über den Einbau von […]-Blue® Cell Viability-Assays (Promega).

[5] = system: Splenozyten (Milzzellen) von SJL/J-Mäusen; test: Viability of stimulated mouse splenocytes (CellTiter-Blue Cell Viability Assay); assay type: cell-based, Maus; conditions: up to 5,0 µM; PWM (Figur 5A) or anti-CD3 (Figur 5B) stimulation
Experimental: as §1

[6] = system: Splenozyten (Milzzellen) der SJL/J-Mäuse; test: Cytokine release of PWM-stimulated mouse splenocytes (ELISA of culture supernatants); assay type: cell-based, Maus; conditions: Splenocyte, remaining release at 5,0 µM, 48 h (Figur 6A), read-out: Reduktion der Freisetzung von IFN-γ (auf)
Experimental: Zur Verifizierung der an humanen […] in vitro-Untersuchungen an Splenozyten (Milzzellen) der SJL/J-Mäuse. Diese Splenozyten von wurden mit Pokeweed-Mitogen (PWM, 1 μg/ml) stimuliert und in An- oder Abwesenheit verschiedener Konzentrationen von Minocyclin und Pentaacetylcyclin inkubiert. Nach 48 Stunden erfolgte die Analyse der Zellkulturüberstände hinsichtlich der Freisetzung der Zytokine Interferon-y (IFN-y) und Interleukin-17 (IL-17) mittels spezifischer ELISA (R&D Systems).

[7] = system: Experimentelle Autoimmune Enzephalomyelitis (EAE); test: Experimental autoimmune encephalomyelitis (EAE) mouse model of multiple sclerosis, therapeutic treatment, EAE score; assay type: in vivo, SJL/J-Maus; conditions: 100 µg/Tag; for Effekt auf die akute Phase der EAE (EAE-Score): intraperitoneal, Tag 12 bis Tag 20, therapeutic
From the text: Als Maß für die Wirkung der therapeutischen Applikation wurde täglich der Schweregrad der EAE-Erkrankung (EAE-Score) bestimmt.

[8] = system: Experimentelle Autoimmune Enzephalomyelitis (EAE); test: Number of inflammatory immune cell infiltrates in the spinal cord after EAE (histology); assay type: in vivo, SJL/J-Mäusen; conditions: intraperitoneal or oral, 100 µg/Tag, Tag 13 bis Tag 17; analysis Tag 20
From the text: Als Folge einer T-Lymphozyten-Aktivierung und -Differenzierung kommt es bei der EAE zu einer massiven Einwanderung (Infiltration) von Immunzellen in das Rückenmark der Mäuse. Diese Immunzellen vermitteln durch Demyeliniserung und neuronale Schädigung die weitere Erkrankung und lassen sich auf histologischen Schnitten als entzündliche Infiltrate darstellen und analysieren. Die Stärke der Infiltration von Immunzellen in das Rückenmark während der EAE korreliert im Allgemeinen mit dem Schweregrad der EAE-Erkrankung.
Deshalb erfolgte die histologische Analyse der entzündlichen Infiltrate im Rückenmark von SJL/J-Mäusen nach EAE und 5-tägiger therapeutischer Applikation von Minocycline bzw. Pentaacetylcyclin.
Die EAE wurde in SJL/J-Mäusen durch Immunisierung mit einem Myelinprotein-Peptid (Proteolipid-Protein 139-151, PLP 139-151) induziert. Die Applikation von Minocyclin, Pentaacetylcyclin und einem Kontroll-Vehikel erfolgte in einem therapeutischen Ansatz (nach eindeutiger Ausbildung der EAE-Erkrankung) in zwei getrennten Versuchsansätzen: • 1.) intraperitoneal (i.p., 100 µg/Tag) von Tag 13 bis Tag 17 • 2.) oral (100 µg/Tag) von Tag 13 bis Tag 17.
Am Tag 20 nach Immunisierung erfolgte die Aufarbeitung des Rückenmarks der Mäuse für histologische Untersuchungen (Paraffin-Schnitte, HE-Färbungen). […]

Row | SMILES | Vitalität der T-Lymphozyten (humane T-Lymphozyten [1]) | reduzierte Zellteilung (bis auf) (humane T-Lymphozyten [2]) | Produktion/Freisetzung von IL-2 (humane T-Lymphozyten [3]; 2,5 bis 5,0 µM (Figur 3A)) | Produktion/Freisetzung von IFN-γ (humane T-Lymphozyten [3]; 2,5 bis 5,0 µM (Figur 3B)) | Produktion/Freisetzung von IL-17 (humane T-Lymphozyten [3]; 2,5 bis 5,0 µM (Figur 3C)) | Proliferation (DNS-Synthese) stimulierter Splenozyten ([4]; PWM (1 µg/ml) or anti-CD3 (145-2C11) stimulation, 72 h) | reduzierte Zellteilung (bis auf) ([4]; remaining proliferation, 4320 min) | Vitalität der Splenozyten [5] | activity at 5 µM [6] [%] | Effekt auf die akute Phase der EAE (EAE-Score) [7] | Effekt auf die akute Phase der EAE (EAE-Score) ([7]; listed as Pentaacetylminocyclin) | Einfluss auf die akute Phase der EAE (EAE-Score) ([7]; oral, Tag 14 bis Tag 22, therapeutic) | Zahl der entzündlichen Infiltrate im Rückenmark [8]
1 | CN(C)c1ccc(O)c2c1C[C@H]1C[C@H]3[C@H](N(C)C)C(O)=C(C(N)=O)C(=O)[C@@]3(O)C(O)=C1C2=O [Minocyclin] | nicht beeinträchtigt |  |  |  |  |  |  |  |  |  |  |  | 
2 | CC(=O)NC(=O)c1c(OC(C)=O)c2c(c(N(C)C)c1OC(C)=O)CC1Cc3c(N(C)C)ccc(OC(C)=O)c3C(=O)C1=C2OC(C)=O (centres unmarked) [Pentaacetylcyclin] | nicht beeinträchtigt | ca. 20% | signifikante Hemmung | signifikante Hemmung | signifikante Hemmung | signifikante Hemmung | ca. 30% | keine Veränderung | ~60 | signifikanten therapeutischen Effekt | signifikanten Einfluss | signifikanten Einfluss | deutliche Verringerung
